Here are results for 27 compounds from patent US8618162B2 (priority 2007, dated 2013).

Read-outs that look alike come from different tables or passages of the source.

One test deals with T1, Ag hmg AChE (Anopheles gambiae, UniProt Q869C3).
T1 construct: To prepare the Ag homogenate (Ag hmg) 10 Anopheles gambiae mosquitoes were combined; from tissue; host or cells: whole Anopheles gambiae mosquitoes, crude homogenate supernatant
Briefly: Ellman AChE inhibition assay, Anopheles gambiae homogenate (Ag hmg). As to conditions: for IC50: pH 7.8, 10 min preincubation; for Human/Ag IC50 ratio (selectivity for AgAChE over hAChE): range over the two AgAChE sources (Ag hmg, Ag ace-1S). In kind it is biochemical. On the technique in general: DTNB colorimetry detects thiols as they appear.

The next test deals with T2, hAChE (Homo sapiens, UniProt P22303).
T2 construct: purchased Sigma C1682
Briefly: Ellman AChE inhibition assay, recombinant hAChE. In kind it is biochemical.

In a further test the target is T3, Ag ace-1S (Anopheles gambiae, UniProt Q869C3).
T3 construct: encoding the entire wild type AgAChE protein (ace1, 737 amino acids); made in house; host or cells: Drosophila S2 cells (stably transfected, pMT/V5-His vector), clarified cell lysate
Put plainly: biochemical.

The next test has as its system Anopheles gambiae. Put plainly: Live mosquito contact toxicity, WHO filter paper assay. In kind it is in vivo. Conditions: for Live Mosquito Contact Toxicity MC for 100% lethality at 24 hr: 1 hr exposure to treated filter paper.
Where [1] appears, read: WT Anopheles gambiae homogenate, read-out: Ag WT hmg IC50.
Where [2] appears, read: pH 7.8, 10 min preincubation, read-out: hAChE recomb. IC50.
Where [3] appears, read: Ag WT hmg IC50, WT Anopheles gambiae homogenate.

T3 sequence (Q869C3 39-737): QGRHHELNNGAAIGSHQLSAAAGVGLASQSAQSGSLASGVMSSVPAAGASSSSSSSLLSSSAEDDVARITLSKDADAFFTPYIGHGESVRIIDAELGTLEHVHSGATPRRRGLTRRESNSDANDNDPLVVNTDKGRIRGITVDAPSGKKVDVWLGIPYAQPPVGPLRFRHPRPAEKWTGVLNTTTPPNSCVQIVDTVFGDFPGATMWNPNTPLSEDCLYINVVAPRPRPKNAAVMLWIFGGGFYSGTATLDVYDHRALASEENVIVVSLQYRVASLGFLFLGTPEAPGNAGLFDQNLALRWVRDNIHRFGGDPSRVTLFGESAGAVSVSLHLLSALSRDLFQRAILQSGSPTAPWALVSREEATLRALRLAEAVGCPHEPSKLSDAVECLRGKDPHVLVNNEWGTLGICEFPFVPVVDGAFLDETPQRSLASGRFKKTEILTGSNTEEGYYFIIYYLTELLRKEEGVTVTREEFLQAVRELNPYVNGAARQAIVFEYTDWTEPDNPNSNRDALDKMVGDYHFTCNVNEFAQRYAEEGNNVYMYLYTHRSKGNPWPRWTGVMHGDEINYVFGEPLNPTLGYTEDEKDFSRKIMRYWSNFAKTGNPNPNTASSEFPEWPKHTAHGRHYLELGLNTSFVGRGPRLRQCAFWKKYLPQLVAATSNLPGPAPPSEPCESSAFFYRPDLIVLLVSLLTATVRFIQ
T1 sequence (Q869C3 39-737): as above
T2 sequence (P22303 32-614): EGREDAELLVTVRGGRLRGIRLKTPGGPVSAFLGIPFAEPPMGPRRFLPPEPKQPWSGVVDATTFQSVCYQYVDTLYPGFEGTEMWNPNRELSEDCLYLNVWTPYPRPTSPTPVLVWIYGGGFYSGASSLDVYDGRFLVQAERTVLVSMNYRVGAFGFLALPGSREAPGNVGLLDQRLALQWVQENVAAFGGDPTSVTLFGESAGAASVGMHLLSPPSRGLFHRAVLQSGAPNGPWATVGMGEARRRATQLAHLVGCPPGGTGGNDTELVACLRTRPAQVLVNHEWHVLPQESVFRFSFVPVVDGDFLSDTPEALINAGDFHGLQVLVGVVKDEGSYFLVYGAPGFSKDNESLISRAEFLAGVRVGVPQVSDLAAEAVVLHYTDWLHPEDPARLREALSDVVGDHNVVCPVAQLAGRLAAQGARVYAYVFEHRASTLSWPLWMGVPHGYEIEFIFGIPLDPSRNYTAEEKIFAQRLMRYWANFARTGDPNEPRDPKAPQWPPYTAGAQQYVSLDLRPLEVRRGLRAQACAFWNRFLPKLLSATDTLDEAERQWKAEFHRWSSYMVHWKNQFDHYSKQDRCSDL

Usually IC50 stands for the midpoint of a concentration-inhibition curve. In the case of `CNC(=O)Oc1cccc2c1OC(C)(C)C2` [Carbofuran, reference compound], the IC50 on Ag hmg AChE (setting [1]) came out at 0.022 µM; at hAChE (setting [2]), 0.061 µM; against Ag ace-1S it was 0.049 µM.
Regarding `CCCCN(CCCC)SN(C)C(=O)Oc1cccc2c1OC(C)(C)C2` [Carbosulfan, reference compound], the IC50 turned out to be 4.1 µM at Ag hmg AChE (setting [1]), 5.92 µM on hAChE (setting [2]) and 10.8 µM at Ag ace-1S.
Turning to `CCC(CC)CSc1ccccc1OC(=O)NC` [Compound 1b, 2-(2-ethylbutylthio)phenyl-N-methylcarbamate], the IC50 against Ag hmg AChE (setting [3]) is 0.003 µM; at hAChE it was 3.63 µM; at Ag ace-1S, 0.0029 µM. Further, the “Human/Ag IC50 ratio (selectivity for AgAChE over hAChE)” value at Ag hmg AChE came to 1200 fold. In addition, the “lethality at 24 h” value in the test on Anopheles gambiae (at 11 ug/cm^2, 1 hr exposure) is listed as 27% at 11.
Regarding `CCCCCCNC(=O)Oc1cccc(C(C)(C)C)c1` [Compound 1c], the half-maximal inhibitory concentration (IC50) on Ag hmg AChE (setting [3]) was greater than 100 µM; at hAChE, 0.696 µM. In addition, in the test with Anopheles gambiae (at 11 ug/cm^2, 1 hr exposure), the “lethality at 24 h” value was 13% lethal at 11.
Consider `CC(C)NC(=O)Oc1cccc(C(C)(C)C)c1` [Compound 1d, N-isopropyl-3-tert-butylphenylcarbamate], for which the IC50 on Ag hmg AChE (setting [3]) was 538 µM; at hAChE, 181 µM.
As to `C#CCNC(=O)Oc1cccc(C(C)(C)C)c1` [Compound 1e, N-propargyl 3-t-butylphenyl carbamate], the results for the half-inhibitory concentration (IC50) on Ag hmg AChE (setting [3]) and at hAChE were 0.339 µM and 0.205 µM, respectively. Also, in the test on Anopheles gambiae, the “Live Mosquito Contact Toxicity MC for 100% lethality at 24 hr” value is 56 ug/cm^2.
For `CC(C)(C)c1cccc(OC(=O)NCc2cn(Cc3ccccc3)nn2)c1` [Compound 1f, N-(1-benzyl-1H-1,2,3-triazol-4-yl)methyl 3-t-butylphenyl carbamate], in that order: greater than 10 µM, greater than 10 µM and 56 ug/cm^2.
For the compound `CN(C)C(=O)Oc1cccc(C(C)(C)C)c1` [Compound 1g], the 50% inhibitory concentration (IC50) against Ag hmg AChE (setting [3]) was found to be 5.94 µM; at hAChE it was 4.04 µM. Moreover, the “lethality at 24 h” value in the test on Anopheles gambiae (at 11 ug/cm^2, 1 hr exposure) was 20% lethal at 11.
Take `CCNC(=O)Oc1cccc(C(C)(C)C)c1` [Compound 1h]: the values for the 50% inhibitory concentration (IC50) against Ag hmg AChE (setting [3]) and at hAChE were 4 µM and 2.41 µM, respectively. For the same compound, in the test on Anopheles gambiae, the “Live Mosquito Contact Toxicity MC for 100% lethality at 24 hr” value is on record as 11 ug/cm^2.
Turning to `CCC(CC)COc1ccccc1OC(=O)NC` [Compound 2b, 2-(2-ethylbutoxy)phenyl-N-methylcarbamate], the IC50 against Ag hmg AChE (setting [3]) is 0.069 µM; on hAChE, 98.8 µM; at Ag ace-1S, 0.01 µM. Also, the “Human/Ag IC50 ratio (selectivity for AgAChE over hAChE)” value on Ag hmg AChE is 1,400-9.900 fold. Moreover, in the test on Anopheles gambiae (at 11 ug/cm^2, 1 hr exposure), the “lethality at 24 h” value is 27%. The “lethality at 24 h, +PBO” value with Anopheles gambiae (at 11 ug/cm^2, +PBO) worked out at 53%.
With `CCC(CC)C[S+]([O-])c1ccccc1OC(=O)NC` (stereo not drawn) [Compound 3b, 2-(2-ethylbutylsulfinyl)phenyl-N-methylcarbamate], the IC50 came to 51.8 µM against Ag hmg AChE (setting [3]) and 55.4 µM on hAChE. Further, the “lethality at 24 h” value with Anopheles gambiae (at 11 ug/cm^2, 1 hr exposure) was determined as 0% at 11.
As to `CCC(C)CSc1ccccc1OC(=O)NC` (stereo not drawn) [Compound 4b, 2-(2-methylbutylthio)phenyl-N-methylcarbamate], the IC50 was found to be 0.03 µM on Ag hmg AChE (setting [3]), 3.54 µM at hAChE and 0.027 µM against Ag ace-1S. Moreover, the “lethality at 24 h” value in the test with Anopheles gambiae (at 11 ug/cm^2, 1 hr exposure) came to 70% at 11.
For `CNC(=O)Oc1ccccc1SC(C)C` [Compound 5b, 2-(isopropylthio)phenyl-N-methylcarbamate], the IC50 against Ag hmg AChE (setting [3]) came to 0.033 µM; at hAChE, 0.943 µM. The “Live Mosquito Contact Toxicity MC for 100% lethality at 24 hr” value in the test with Anopheles gambiae is listed as 2.8 ug/cm^2.
`CNC(=O)Oc1ccccc1SCC(C)C` [Compound 6b, 2-(isobutylthio)phenyl-N-methylcarbamate]: the IC50 stood at 0.109 µM at Ag hmg AChE (setting [3]) and 8.11 µM at hAChE. Moreover, the “Human/Ag IC50 ratio (selectivity for AgAChE over hAChE)” value at Ag hmg AChE came to 74 fold. Also, the “Live Mosquito Contact Toxicity MC for 100% lethality at 24 hr” value in the test with Anopheles gambiae came out at 11 ug/cm^2.
On to `CNC(=O)Oc1ccccc1SCC(C)(C)C` [Compound 7b, 2-(neopentylthio)phenyl-N-methylcarbamate], for which the IC50 on Ag hmg AChE (setting [3]) came out at 0.732 µM; on hAChE it was 13.9 µM; at Ag ace-1S it was 0.287 µM. Besides, in the test on Anopheles gambiae (at 11 ug/cm^2, 1 hr exposure), the “lethality at 24 h” value is 33% at 11.
As for `C=C(C)CSc1ccccc1OC(=O)NC` [Compound 8b, 2-(2-methylallylthio)phenyl-N-methylcarbamate], the IC50 stood at 0.124 µM against Ag hmg AChE (setting [3]), 9.55 µM on hAChE and 0.165 µM on Ag ace-1S. The “Live Mosquito Contact Toxicity MC for 100% lethality at 24 hr” value in the test with Anopheles gambiae amounted to 2.8 ug/cm^2.
For the compound `C=C(C)CSc1ccccc1OC(=O)NCC` [Compound 8c, 2-(3-thio-2-methylpropenyl)phenyl-N-ethylcarbamate], the half-maximal inhibitory concentration (IC50) against Ag hmg AChE (setting [3]) amounted to 13 µM; at hAChE, 54.2 µM. Besides, the “lethality at 24 h” value in the test with Anopheles gambiae (at 11 ug/cm^2, 1 hr exposure) was “None at 11”.
Turning to `C=C(C)CSc1ccccc1OC(=O)NCCCCCC` [Compound 8d, 2-(3-thio-2-methylpropenyl)phenyl-N-hexylcarbamate], the IC50 is greater than 100 µM on Ag hmg AChE (setting [3]) and 6.86 µM at hAChE. Also, the “lethality at 24 h” value in the test on Anopheles gambiae (at 11 ug/cm^2, 1 hr exposure) is “None at 11”.
The like results for `C=C(C)CSc1ccccc1OC(=O)N(C)C` [Compound 8e, 2-(3-thio-2-methylpropenyl)phenyl-N,N-dimethylcarbamate] were, in that order, 5.82 µM, 10.3 µM and “None at 11”.
As to `CNC(=O)Oc1ccccc1SCC1CCCCC1` [Compound 9b, 2-(cyclohexylmethylthio)phenyl-N-methylcarbamate], the concentration for half-maximal inhibition (IC50) against Ag hmg AChE (setting [3]) was 17.5 µM; at hAChE, 10.6 µM.
In the case of `CNC(=O)Oc1ccccc1OCC1CCCCC1` [Compound 10b, 2-(cyclohexylmethoxy)phenyl-N-methylcarbamate], the IC50 at Ag hmg AChE (setting [3]) and at hAChE was greater than 100 µM each time.
For the compound `CNC(=O)Oc1ccccc1SCC1CCCC1` [Compound 11b, 2-(cyclopentylmethylthio)phenyl-N-methylcarbamate], the figures for the IC50 against Ag hmg AChE (setting [3]), on hAChE and on Ag ace-1S were 1.07 µM, 6.88 µM and 0.391 µM, respectively.
With `CNC(=O)Oc1ccccc1OCC1CCCC1` [Compound 12b, 2-(cyclopentylmethoxy)phenyl-N-methylcarbamate], the IC50 on Ag hmg AChE (setting [3]) was 24.6 µM; on hAChE, greater than 100 µM.
Turning to `CNC(=O)Oc1cccc(-c2cn(Cc3ccccc3)nn2)c1` [Compound 13a, N-methyl 3-(1-benzyl-1H-1,2,3-triazol-4-yl)phenyl carbamate], the IC50 was 336 µM against Ag hmg AChE (setting [3]) and greater than 100 µM at hAChE. Moreover, the “lethality at 24 h” value in the test with Anopheles gambiae (at 11 ug/cm^2, 1 hr exposure) is given as “None at 11”.
Consider `CNC(=O)Oc1ccccc1OCC(C)C` [Compound 13b, 2-isobutoxyphenyl-N-methylcarbamate], for which the IC50 against Ag hmg AChE (setting [3]) stood at 2.06 µM; at hAChE, 66.9 µM; at Ag ace-1S it was 0.65 µM. Besides, in the test with Anopheles gambiae (at 2.8 ug/cm^2, 1 hr exposure), the “lethality at 24 h” value was 100% at 2.8.
In the case of `CNC(=O)Oc1ccccc1SCc1ccccc1` [Compound 19b, 2-(benzylthio)phenyl-N-methylcarbamate], the results for the 50% inhibitory concentration (IC50) at Ag hmg AChE (setting [3]), at hAChE and at Ag ace-1S were 6.9 µM, 15.7 µM and 3.84 µM, respectively.
Turning to `C=C(C)COc1ccccc1OC(=O)NC` [Compound 20b, 2-(2-methylallyloxy)phenyl-N-methylcarbamate], the IC50 at Ag hmg AChE (setting [3]) was determined as 1.51 µM; on hAChE it was 68.7 µM. Also, the “lethality at 24 h” value in the test on Anopheles gambiae (at 11 ug/cm^2, 1 hr exposure) was determined as 93% lethality at 11.
